# Assay results published in patent publication US10301308B2, “Azetidine derivatives for tau imaging” (Eli Lilly and Company, priority 2015, dated 2019).
# Key:
# [1] = molecular target: PHF (tau from Alzheimer's disease donors) (Homo sapiens, UniProt P10636); experiment: Competition radioligand binding versus [18F]AV-1451 on PHF (Ki determination)
# Source text: Purified, soluble PHF is isolated from AD brain tissue using a protocol modified from the procedure described by Jicha, et al. (G. A. Jicha, A. O'Donnell, C. Weaver (1999) “Hierarchical phosphorylation of recombinant tau by the paired-helical filament-associated protein kinase is dependent on cyclic AMP-dependent protein kinase” J Neurochem. 72(1):214). Briefly, AD cortex is homogenized using a handheld Kinematica Polytron, followed by high pressure batch—gas expansion using a Parr Cell disruption bomb. Crude homogenate is centrifuged at 28 kg to pellet cell debris. Soluble PHF is isolated from the supernatant by affinity chromatography over an Affigel-10 column on which the tau antibody MCI, which recognizes a pathological conformation of tau, has been immobilized (G. A. Jicha, R. Bowser, I. G. Kazam (1997), “Alz-50 and MC-1, a new monoclonal antibody raised to paired helical filaments, recognize conformational epitopes on recombinant tau” J Neurosci Res. 48(2): 12.)
# The IC50 (i.e. the molar concentration of competing ligand which reduces the specific binding of a radioligand by 50%) for the unlabeled compound is determined by competition radioligand binding, in which the binding of [18F]AV-1451 to PHF is competed with unlabeled compound at various concentrations. […]
# [2] = Mouse PET/CT time activity curves; format: in vivo, CD-1 wild type mice; conditions: mouse PET/CT time activity curves
# Procedure: Dynamic Micro-Positron Emission Tomography (mPET) images are obtained from CD-1 wild type mice using 3-(3-[18F]-fluoroazetidin-1-yl)-8-methylbenzo[4,5]imidazo[1,2-a]pyridine. Micro-Computed Tomography (mCT) of each subject is used as anatomical reference for image analysis. Biodistribution of the tracer in brain, muscle, bone, liver, and kidney is assessed by generating Time Activity Curves (TAC) using the fused mPET/mCT images. An INVEON multimodality scanner (Siemens, Germany) is used for mPET/mCT. All animal work is performed in accordance with the University of Sciences Institutional Animal Care & Use Committee-approved procedures.
# Animals are anesthetized with 3% isoflurane/97% oxygen and are placed on the scanner bed. A short high-resolution CT scan is first performed for anatomical registration, followed by a 120-minute PET scan. During the PET scan a water heating system is placed underneath the bed to help maintain the body temperature. Within 3 minutes after the beginning of the PET acquisition, the [18F]-labeled compound 3-(3-[18F]-fluoroazetidin-1-yl)-8-methylbenzo[4,5]imidazo[1,2-a]pyridine is administered to the animals via tail vein injection (250 uCi in a total volume of 200 uL saline). A PET image is generated for each minute of the acquisition time. Uptake of the tracer is obtained by visually drawing regions of interest based on the fused PET/CT images, and the corresponding activity values are determined using the INVEON Research Workplace software (Siemens, Germany). All values are represented as percent injected dose per gram (% ID/g).
# The mouse PET/CT time activity curves of 3-(4-(2-[18F]-fluoroethyl)piperidin-1-yl)-8-methoxybenzo[4,5]imidazo[1,2-a]pyridine (T821) (See FIG. 9) and of 3-(4-[18F]-fluoropiperidin-1-yl)-8-methoxybenzo[4,5]imidazo[1,2-a]pyridine (T798) (See FIG. 10) are obtained as described in Assay Example 7 (T821 and T798 are recited in US2011/0182812). […] Therefore, when imaging with T821 and/or T798, the undesirable non-tau PET signals from the skull bones could interfere with desired tau signals from the brain cortex. Thus, in addition to the lack of selectivity for T821 and T798, these compounds would further represent poor candidates for human brain tau PET tracers because of the interfering radioactivity signal from bone. […] The advantageous properties of Compound 8 are useful to provide enhanced tau PET imaging in humans. This combination of critical properties was not known and could not have been predicted from existing tau imaging compounds.
# [3] = test system: native tau aggregates vs native β-amyloid aggregates in human brain sections; experiment: Autoradiography selectivity towards tau versus β amyloid in AD human brain tissue; format: binding; conditions: for selectivity ratio for Tau:Aβ: 5 Tau+Aβ+ and 2 Tau-Aβ+ brain specimens; for grey matter to white matter (GM/WM) signal ratio: autoradiography, Tau+Aβ+ brain specimens; for binding sites observed in autoradiography: human brain sections Groups A, B, C
# Source text: Based on the anti-tau and anti-amyloid immunostaining results of brain sections, three groups of human brain sections are selected for autoradiography experiments to determine the native tau-binding selectivity of 3-(3-[18F]-fluoroazetidin-1-yl)-8-methylbenzo[4,5]imidazo[1,2-a]pyridine. Group A are tau-rich AD brain slices (labeled as Tau+Aβ+), Group B are tau-poor AD brain slices (marked as Tau-Aβ+), and Group C are Tau-Aβ− normal brain slices. […] The human AD brain sections in Group B are #33562, #32656, #33998, #35682, and #33563. The normal human brain sections in group C are #29092 and #32566. Tissue slices from the same donors are used to calculate selectivity for all three compounds for testing according to Assay Example 5. Autoradiography is performed for each of these three groups of brains on adjacent 10 μm sections with the amyloid tracer [18F]W372 to quantify the β-amyloid burden. [18F]W372 is a selective amyloid binding tracer discovered by Siemens and evaluated under IND 105173. Sections are covered with 0.5 ml of 3-(3-[18F]-fluoroazetidin-1-yl)-8-methylbenzo[4,5]imidazo[1,2-a]pyridine (in 2.5:2.5:95 DMSO:EtOH:1×PBS, about 20 μCi/slide) and incubated for 1.5 hrs. Then successive washing cycles (1 min PBS, 2 min 30% EtOH/PBS, 2 min 70% EtOH/PBS, 1 min PBS) are employed to remove any unbound tracer. The sections are air dried, placed on a phosphorimaging plate (Fuji IP plate), and exposed overnight. The IP plate is read using a GE Healthcare Life Sciences Typhoon FLA 7000 Phosphorimager. The signal intensity of the grey matter is measured using Fujifilm Multi Gauge software. After subtracting the background signal (signal in the cortex region of Group C), the signal of individual sections of Group A and B are normalized with corresponding signal from autoradiography of the respective adjacent sections with [18F]W372. The calculations are based on Group B brain sections #32656 and #33998, which have undetectable tau pathology by immunohistochemistry. The normalized signal for 3-(3-[18F]-fluoroazetidin-1-yl)-8-methylbenzo[4,5]imidazo[1,2-a]pyridine in Group B brain sections is the relative signal level of 3-(3-[18F]-fluoroazetidin-1-yl)-8-methylbenzo[4,5]imidazo[1,2-a]pyridine to [F-18]W372 resulting from binding to native β-amyloid aggregates. The binding level of 3-(3-[18F]-fluoroazetidin-1-yl)-8-methylbenzo[4,5]imidazo[1,2-a]pyridine to native tau-aggregates in Group A sections is estimated by subtracting the amount of the total signal attributable to binding to 3-amyloid (calculated by multiplying the total signal from [18F]W372 binding to β-amyloid in the adjacent section by the relative signal of 3-(3-[18F]-fluoroazetidin-1-yl)-8-methylbenzo[4,5]imidazo[1,2-a]pyridine to [18F]W372 determined from the Group B sections). The resulting difference is then divided by the signal attributable to binding to β-amyloid to estimate the selectivity of 3-(3-[18F]-fluoroazetidin-1-yl)-8-methylbenzo[4,5]imidazo[1,2-a]pyridine. […] The selectivity of 3-(3-[18F]-fluoroazetidin-1-yl)-8-methylbenzo[4,5]imidazo[1,2-a]pyridine binding to native tau aggregates vs. binding native β-amyloid aggregates is reflected by the ratio of Group A (Tau+Aβ+) signal to the signal of the brain sections #32656 and #33998.
# [4] = Clinical PET kinetic profile: brain uptake, washout, metabolism; format: in vivo, human; conditions: human subjects, dynamic PET
# Procedure: (§1) Clinical evaluation of 3-(3-[18F]-Fluoroazetidin-1-yl)-8-methylbenzo[4,5]imidazo[1,2-a]pyridine (Compound 8) as a PET radioligand for imaging tau protein deposition in patients with AD or other neurodegenerative disorders is conducted in healthy volunteers. AD patients, or Chronic Traumatic Encephalopathy (CTE) subjects, by completion of one or more PET scans with Compound 8. Dynamic PET imaging is acquired on a Siemens ECAT EXACT HR+ over 150 minutes following Compound 8 or [18F]AV-1451 injection (0-60 and 90-150 minute imaging segments). Compound 8 or [18F]AV-1451 scans are acquired similarly in two imaging sessions. A brain MRI is also obtained. PET and MRI images are aligned and normalized, and ATLAS-based volumes of interest (VOI) are applied to the dynamic PET series. Compound 8 or [18F]AV-1451 are evaluated in terms of kinetic profile as well as target region to cerebellum standardized uptake value ratio (SUVr between 100-120 min) between healthy volunteers and AD or CTE subjects.
# tau protein = experiment: Clinical PET imaging of tau protein in the brain (SUVr); format: in vivo, human; conditions: AD subjects vs healthy controls
# Procedure: as §1
# Sequence of PHF (tau from Alzheimer's disease donors) (P10636 623-695 limits assumed): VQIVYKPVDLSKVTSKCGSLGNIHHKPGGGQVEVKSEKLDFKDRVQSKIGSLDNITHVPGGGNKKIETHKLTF
SMILES,"Ki ([1]; tau obtained from donors with Alzheimer's disease, from IC50 by Cheng-Prusoff)",bone uptake of radioactivity [2],selectivity ratio for Tau:Aβ [3],grey matter to white matter (GM/WM) signal ratio [3],binding sites observed in autoradiography [3],peak brain uptake [4],"Kd ([1]; value used in the Cheng-Prusoff equation, read-out: Kd, dissociation constant of the radioligand)","uptake in cortical brain regions, AD subjects compared with healthy controls (tau protein)"
"Cc1ccc2nc3cc(N4CC(F)C4)ccn3c2c1 [Compound 4, 3-(3-fluoroazetidin-1-yl)-8-methylbenzo[4,5]imidazo[1,2-a]pyridine]",0.6 nM,,,,,,,
"COc1ccc2nc3cc(N4CCC([18F])CC4)ccn3c2c1 [Compound T798, 3-(4-[18F]-fluoropiperidin-1-yl)-8-methoxybenzo[4,5]imidazol[1,2-a]pyridine, reference compound]",,bone uptake of radioactivity increases with time,approximately 8.4±1.7,approximately 18.0±3.2,"binds to tau, amyloid, and unidentified binding sites in normal human brain",,,
"COc1ccc2nc3cc(N4CCC(CC[18F])CC4)ccn3c2c1 [Compound T821, 3-(4-(2-[18F]-fluoroethyl)piperidin-1-yl)-8-methoxybenzo[4,5]imidazo[1,2-a]pyridine, reference compound]",,bone uptake of radioactivity increases with time,approximately 2.22±0.45,approximately 11.7±1.2,"binds to tau, amyloid, and unidentified binding sites in normal human brain",,,
"[18F]c1ccc(-c2ccc3c(c2)[nH]c2ccncc23)cn1 [[18F]AV-1451, reference compound]",,,,,,~6 SUV,0.57 nM,Higher uptake
